Several values for one entry are separate records, joined by “and”; a condition that tells them apart may be missing. Equal entries are not always repeated. Where two headings read alike, the source gives them in different places.
What was measured:
rats or mice = settings: cited from earlier work
fouling = assay: Anti-fouling panel exposure in the ocean at Daytona Beach, rating 0 to 10; settings: for General Rating, 1 Mo. / General Rating, 4 Mos. / General Rating, 6 Mos.: Example 15, Table 7, agent as is
Description: Test panels were 15.24 cm×30.48 cm (6 in×12 in) in dimension and were constructed of a white plastic top surface and a black plastic bottom surface. The test panels were coated on both sides with the two formulations above-tabulated at a film thickness of about 5 mils dry. The test panels then were exposed horizontally with the white surface upward and the black surface downward in the ocean at Daytona Beach, Fla., U.S.A. A control panel consisted of 12 wt-% triphenyl tin hydroxide dispersed in a resinous vinyl binder (80 wt-parts of a vinyl chloride polymer, VAGH brand, Union Carbide Corporation, New York, N.Y.) reduced in methyl ethyl ketone solvent to 50% solids content. After exposure, the control and test panels were inspected and assigned a numerical rating from 0 to 10 based on the amount of surface area of the panel that was free from fouling, a rating of "10" corresponding to perfect protection. The following results were recorded.

fish = settings: in words; cited from earlier work
rats = settings: oral; cited from earlier work
[1] = SEM / Energy Dispersion Spectroscopy analysis of cured epoxy resin; format: physicochemical; settings: Example 16, Sample 2 (FIG. 2); EDS
Description: An epoxy resin system was examined for its ability to be modified so as to preferentially influence the concentration or location of an anti-fouling agent (Nopocide N-96, see Example 1) within its structure. A direct comparison was made between an epoxy resin (EPON 828 epoxy resin, diglycidyl ether of bis-phenol A, Shell Chemical Company) and the same epoxy resin containing a domain structuring polymeric material, such as a polysulfide resin (LP-32 polysulfide resin, Thiokol Corporation). Both systems contained the same anti-fouling agent. The compositions formulated are set forth below: […]

mammalian = settings: in words; cited from earlier work
[2] = Example 11, Table 3, additive at 20 wt-%, 10 is perfect protection
[3] = listed as 2,3-Dichloro-1,4-Naphthaquinone
[4] = Example 10, 20 wt-% in Control Paint, 10 is perfect protection
[5] = Example 13, Table 5, additive at 20 wt-%
[6] = Example 12, Table 4, additive at 20 wt-%
[7] = Example 14, Table 6, additive at 20 wt-%

Nc1cc(Cl)cc(C(=O)O)c1Cl [2,5-dichloro,3-amino benzoic acid]
LD50 value (rats or mice; in vivo, po): 5,620

Nc1cc(Cl)ccc1Cl [2,5-Dichloroaniline]
Rating After Exposure, 4 Months (fouling; [2]): 0 | Rating After Exposure, 462 Days (fouling; [2]): 0

C=C(Cl)CSC(=S)N(CC)CC [2-chloro-2-propenyl diethylcarbamodithioate]
LD50 value (rats or mice; in vivo, po): 850

CCCCCCCCCCCCNC(=N)N [dodecylguanidine monoacetate]
LD50 value (rats or mice; species not given, in mg/kg): 1,000

CC(C)C(C(=O)OC(C#N)c1cccc(Oc2ccccc2)c1)c1ccc(Cl)cc1 (centres unmarked) [diphenyl ether, chlorophenyl derivative of the isobutyric acid ester of hydroxyacetonitrile]
toxicity to fish (fish): toxic to fish | LD50 value (rats or mice; in vivo, po): 451

CCOC(=O)C(O)(c1ccc(Cl)cc1)c1ccc(Cl)cc1 [ethyl 4-chloro-alpha(4-chlorophenyl)alpha-hydroxy benzene acetate]
LD50 value (rats): 5,000 mg/kg

C#CCOS(=O)OC1CCCCC1Oc1ccc(C(C)(C)C)cc1 (centres unmarked) [dimethylethylphenoxy-cyclohexyl-2-propynyl sulfite]
LD50 value (rats or mice; species not given, in mg/kg): 2,200

CCCCCCCCCCCCCCCC[N+](C)(C)C.[Br-] [cetyltrimethylammonium bromide]
LD50 value (rats): 500 mg/kg

COP(=S)(OC)Oc1ccc(Sc2ccc(OP(=S)(OC)OC)cc2)cc1 [dimethoxythiophosphate derivative of diphenyl sulfide]
LD50 value (rats): 2030 mg/kg

Oc1ccccc1-c1ccccc1 [o-phenylphenol]
LD50 value (rats or mice; species not given, in mg/kg): 2,700

C=CCN(CC=C)C(=O)CCl [2-chloro-N,N-diallylacetamide]
General Rating, 1 Mo. (fouling): 5 | General Rating, 4 Mos. (fouling): 4 | General Rating, 6 Mos. (fouling): 0 | LD50 value (rats): 700 mg/kg | LD50 value (rats or mice; species not given, in mg/kg): 750

OB(O)O [boric acid]
anti-fouling activity (fouling; in words): quite active as an anti-fouling agent | LD50 value (rats): 3,000 mg/kg

Nc1cnn(-c2ccccc2)c(=O)c1Cl [amino, chloro, phenyl derivative of azacyclohexamine]
LD50 value (rats or mice; species not given, in mg/kg): 3,030

O=C(O)Cc1c(Cl)ccc(Cl)c1Cl [trichlorophenyl acetic acid]
LD50 value (rats or mice; species not given, in mg/kg): 1,780

O=C1C(Cl)=C(Cl)C(=O)c2ccccc21 [2,3-dichloro-1,4-napthoquinone]
General Rating, 6 Mos. (fouling): 0 | General Rating, 1 Mo. (fouling; [3]): 7 and 5 | General Rating, 4 Mos. (fouling; [3]): 6 and 3

Nc1c(Cl)cc([N+](=O)[O-])cc1Cl [2,-6-dichloro, 4-nitroaniline]
Rating After Exposure, 4 Months (fouling; [2]): 0 | Rating After Exposure, 462 Days (fouling; [2]): 0

CCCCCCCCCCCCCCCC[n+]1ccccc1 [cetylpyridinium chloride]
LD50 value (rats): 200 mg/kg

N#Cc1c(Cl)c(Cl)c(Cl)c(Cl)c1C#N [Nopocide, 1,2-dicyano, tetrachlorobenzene]
Rating After Exposure, 4 Months (fouling; [4]): 0 | Rating After Exposure, 462 Days (fouling; [4]): 0

Oc1c(Cl)cc(Cl)c(Cl)c1Cc1c(O)c(Cl)cc(Cl)c1Cl [hexachlorophene]
chlorine concentration in round island domains [1]: 48% | chlorine concentration in sea-like domains [1]: 36%

O=C(O)CNCP(=O)(O)O [aminoacetic acid derivative of methylphosphonate]
LD50 value (rats or mice; species not given, in mg/kg): 4,300

C=CCc1ccc(O)c(OC)c1 [Eugenol, 4-allyl-2-methoxyphenol]
General Rating, 1 Mo. (fouling): 9 and 7 | General Rating, 4 Mos. (fouling): 3 | General Rating, 6 Mos. (fouling): 0 | LD50 value (rats): 2,000 mg/kg

Nc1ccc(Cl)c(Cl)c1 [3,4-Dichloroaniline]
Rating After Exposure, 4 Months (fouling; [2]): 0 | Rating After Exposure, 462 Days (fouling; [2]): 0

C=CCC1=C(C)C(OC(=O)[C@@H]2[C@@H](C=C(C)C)C2(C)C)CC1=O (stereo partly drawn) [d-Trans-Allerthrin]
Rating After Exposure, 1 Months (fouling; [5]): 0-1 | Rating After Exposure, 4 Months (fouling; [5]): 0

NC(=O)Cc1cccc2ccccc12 [napthalene acetamide]
LD50 value (rats or mice; in vivo, po): 1,000

c1ccc2c(c1)Nc1ccccc1S2 [Phenothiazine]
Rating After Exposure, 4 Months (fouling; [6]): 0

CCNc1nc(Cl)nc(NC(C)C)n1 [2-isopropylamino-4-chloro-6-ethylamino triazine]
LD50 value (rats): 1869 mg/kg

c1ccc(Nc2ccccc2)cc1 [diphenylamine]
General Rating, 1 Mo. (fouling): 5 | General Rating, 6 Mos. (fouling): 0 | General Rating, 4 Mos. (fouling; listed as Diphenylanaline): 4 and 3 | mammalian toxicity (mammalian): Low mammalian toxicity

O=C1OC(=O)C2C1C1(Cl)C(Cl)=C(Cl)C2(Cl)C1(Cl)Cl (centres unmarked) [1,4,5,6,7,7-hexachloro-5-norborene-2,3-dicarboxylic anhydride]
Rating After Exposure, 4 Months (fouling; [6]): 0

C#CC(C)(C)NC(=O)c1cc(Cl)cc(Cl)c1 [Pronamide, 3,5-dichloro-N-(3,3-dimethylpropyne)benzamide]
Rating After Exposure, 1 Months (fouling; [5]): 0 | Rating After Exposure, 4 Months (fouling; [5]): 0

CN(C)C(=O)Nc1ccc(Cl)c(Cl)c1 [3-(3,4-Dichlorophenyl)-1,1-dimethyl urea]
Rating After Exposure, 1 Months (fouling; [7]): 9 | Rating After Exposure, 4 Months (fouling; [7]): 0

CCN(CC)c1nc(C)cc(OP(=S)(OC)OC)n1 [methyl, diethylamino, dimethoxythiophosphate derivative of pyrimidine]
LD50 value (rats): 2,000 mg/kg

C=CCC1=C(C)C(OC(=O)C2C(C=C(C)C)C2(C)C)CC1=O (centres unmarked) [allyl, methylhydroxy substituted cyclopententone ester of dimethylpropenyl cyclopropane carboxylic acid]
LD50 value (rats or mice; species not given, in mg/kg): 1,000

O=C(Nc1cccc2c(NC(=O)n3ccnc3)cccc12)n1ccnc1
Rating After Exposure, 1 Months (fouling; [7]): 6-7 | Rating After Exposure, 4 Months (fouling; [7]): 0
